In general, IC50 refers to the point on the concentration scale where inhibition reaches its midpoint.

One test concerns the target T1, hpol η (Homo sapiens, UniProt Q9Y253).
T1 construct: human DNA polymerases η (amino acids 1-437); 6x-histidine (N, cleaved yes); GST (N, cleaved yes); made in house; host or cells: Escherichia coli BL21 (DE3)
T1 sequence (Q9Y253 1-437): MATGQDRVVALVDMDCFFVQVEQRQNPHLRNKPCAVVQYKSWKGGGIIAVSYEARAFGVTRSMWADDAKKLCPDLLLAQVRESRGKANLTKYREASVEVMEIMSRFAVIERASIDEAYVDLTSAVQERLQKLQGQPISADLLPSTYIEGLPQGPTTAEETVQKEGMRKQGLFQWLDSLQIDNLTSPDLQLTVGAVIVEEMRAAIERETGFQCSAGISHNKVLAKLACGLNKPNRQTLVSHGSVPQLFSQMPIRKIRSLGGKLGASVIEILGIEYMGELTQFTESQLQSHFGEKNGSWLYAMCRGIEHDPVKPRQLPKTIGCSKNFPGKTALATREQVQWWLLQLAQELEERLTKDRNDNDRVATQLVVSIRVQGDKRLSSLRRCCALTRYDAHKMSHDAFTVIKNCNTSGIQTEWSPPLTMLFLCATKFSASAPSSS
Kind of test: Fluorescence-based DNA polymerase strand-displacement assay. Format: biochemical.
Details: not given
The source says:
A library of 320 compounds targeted against nucleic acid interacting proteins was screened for inhibition of polymerase activity using an assay that monitors fluorescence from a 5-carboxytetramethylrhodamine (TAMRA) labeled oligonucleotide. In order to prepare the DNA for the experiment, a TAMRA-labeled reporter (or displaced) strand (SEQ ID NO. 4: 5′-TTT TTT TTG C-TAMRA-3′) and unlabeled primer strand (SEQ ID NO. 5: 5′-TCA CCC TCGTAC GAC TCT T-3′) were annealed to a Black Hole Quencher (BHQ)-labeled template strand (SEQ ID NO. 6: 5′BHQ2-GCAAAAAAAAAA GAG TCG TAC GAG GGT GA-3′) in a solution containing 10 mM Tris (pH 8.0), 50 mM NaCl, 2 mM MgCl2, and dH2O. The template (T), primer (P) and displaced strand (D) oligonucleotides were mixed in a 1:1.5:1.5 (T:P:D) molar ratio for annealing. After an incubation period of three minutes at 95° C., the DNA was allowed to slowly cool to room temperature overnight.
The fluorescence-based assay used to screen for polymerase inhibitors measures polymerase-catalyzed displacement of a TAMRA-labeled oligonucleotide (FIG. 1). For the initial screen, the experimental setup included 50 nM hpol η), 50 nM DNA, 6 μM compound, 100 μM dTTP and 1 mM MgCl2. The reactions were performed in 50 mM Tris (pH 8.0) buffer containing 40 mM NaCl, 2 mM dithiothreitol, and 0.01% (v/v) Tween-20. The concentration of dimethyl sulfoxide (DMSO) was 3.5% (v/v) for the initial screen. The enzyme, the compounds (including a DMSO control) and dTTP were combined with the reaction buffer in individual wells of each half-plate and allowed to incubate for 5-10 minutes. The DNA substrate was subsequently added to initiate the reaction and the plate was read immediately using a BioTek SynergyH4 plate reader (λex=525 nm, λem=598 run). The final reaction volume was 200 μL. Fluorescence was monitored for 90 minutes for most reactions. The initial portion of the velocity curve was analyzed by linear regression to calculate an observed rate of product formation. For each data set, eight DMSO control experiments were averaged to obtain our measure of 100% activity. Rates of product formation in the presence of each compound were then divided by the rate of the DMSO control to produce a relative measure of polymerase activity (0 to 1, with 1 being no inhibition).
In order to determine the IC50 value for each enzyme, the fluorescence-based polymerase assay was repeated with increasing concentrations of inhibitor. The conditions varied slightly for each enzyme. With the exception of hpol ι, all IC50 experiments were performed in 50 mM Tris HCl (pH 8.0) buffer containing 1 mM MgCl2, 0.1 mM dTTP, 40 mM NaCl, 2 mM DTT, 0.01% (v/v) Tween-20 and 10% (v/v) DMSO. For experiments with hpol ι, KCl was substituted for NaCl and 0.25 mM MnCl2 was substituted for MgCl2. The concentration of inhibitor was 0, 1, 5, 10, 20, 30, 50, 75 and 100 μM. The enzyme and DNA concentrations were as follows: 10 nM hpol η, 50 nM DNA; 3 nM hpol κ, 60 nM DNA; 50 nM hpol ι, 50 nM DNA; 10 nM Dpo4, 50 nM DNA; 100 nM Dpo1, 50 nM DNA; 50 nM hpol β, 50 nM DNA; 50 nM HIV-1 RT, 50 nM DNA. The percent activity was plotted as a function of the log of inhibitor concentration and fit to a four-parameter logistic model (equation 1) using Prism software (Graph Pad, San Diego, Calif.): […]
As for `O=C1NC(=S)NC(=O)C1=Cc1cn(C(=O)c2cccc3ccccc23)c2ccc(Cl)cc12` [ITBA-17], the half-maximal inhibitory concentration (IC50) was 15.8 ± 3.3 µM.

Staying with this test, now noted: 50 μM compound.
Turning to `O=C1NC(=S)NC(=O)C1=Cc1cn(C(=O)c2cccc3ccccc23)c2ccc(Cl)cc12` [ITBA-17], the “hpol η percent activity relative to the control assay” value is “most potent inhibitor”.

The next test addresses T2, EndoG (Homo sapiens, UniProt Q14249).
T2 sequence (Q14249 49-297): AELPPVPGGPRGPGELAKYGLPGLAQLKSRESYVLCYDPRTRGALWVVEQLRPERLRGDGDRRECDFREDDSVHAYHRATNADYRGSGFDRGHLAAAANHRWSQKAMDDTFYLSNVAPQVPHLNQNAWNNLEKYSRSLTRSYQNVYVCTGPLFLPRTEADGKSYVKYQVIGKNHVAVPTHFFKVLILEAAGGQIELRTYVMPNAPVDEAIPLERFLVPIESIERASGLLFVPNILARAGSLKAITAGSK
The experiment in a line: High-throughput EndoG screening assay. Format: biochemical. As to conditions: 20 min; compound 1 μM; read-out: % EndoG activity in the presence of the compound. The protocol:
A reaction mixture was prepared in each well of a white 96-well plate (Costar, Corning, N.Y.) as follows: 0.25 μM Cy5.5-labeled oligonucleotide (described in US provisional patent filed Oct. 19, 2012, Ser. No. 61/716,097) 0.3 mM MgCl2, 10 mM Tris-HCl, pH 7.4, 1 μl DMSO containing 5 or 50 ng of test compound, and nuclease-free water for a total reaction volume of 100 μl. The background (negative control) and uninhibited EndoG samples were measured using DMSO only, or DMSO containing recombinant EndoG (4 μg/ml), respectively. After addition of EndoG, fluorescence intensity was kinetically measured on a Bio-Tek Synergy 4.0 plate reader at 37° C. and mean velocity (mRFU/min) within 20 min was automatically calculated by the plate reader. The background was subtracted prior to the calculation of EndoG activity (%). The percent of EndoG activity was calculated from the mean velocity of a compound divided by the mean velocity of DMSO with recombinant EndoG, and the obtained value multiplied by 100.
Turning to `COc1cc(Cn2c(C)c(C=C3C(=O)NC(=S)NC3=O)c3ccccc32)cc(OC)c1` [PNR-5-96], the remaining activity at 1 µM came out at 71.5%.
Same read-out and setting: as for `Cc1c(C=C2C(=O)NC(=S)NC2=O)c2ccccc2n1Cc1ccc([N+](=O)[O-])cc1` [PNR-6-17], the figure is 69.8%.
On the same count and under the same terms, then `CN1C(=O)C(=Cc2cn(C(=O)c3cccc4ccccc34)c3ccc(Cl)cc23)C(=O)N(C)C1=O` [PNR-6-59], with 47.5%; and `CN1C(=O)C(=Cc2cn(C(=O)c3ccc4ccccc4c3)c3ccc(Cl)cc23)C(=O)N(C)C1=O` [PNR-6-60], with 67.9%; and `Cc1c(C=C2C(=O)NC(=O)NC2=O)c2ccccc2n1C(=O)c1cccc2ccccc12` [PNR-6-64], with 71.7%.
Consider `Cc1c(C=C2C(=O)NC(=S)NC2=O)c2ccccc2n1C(=O)c1cccc2ccccc12` [PNR-6-65], for which the remaining activity at 1 µM turned out to be 65%.
`Cc1c(C=C2C(=O)NC(=S)NC2=O)c2ccccc2n1C(=O)c1ccc2ccccc2c1` [PNR-6-69]: the remaining activity at 1 µM was 31.6%.
In the case of `COc1ccc2c(c1)c(C=C1C(=O)NC(=S)NC1=O)c(C)n2C(=O)c1cccc2ccccc12` [PNR-6-74], the remaining activity at 1 µM was 63.5%.
Consider `O=C1NC(=S)NC(=O)C1=Cc1cn(Cc2cccc3ccccc23)c2ccccc12` [PNR-6-83], for which the remaining activity at 1 µM is 16%.
As to `COc1ccc2c(c1)c(C=C1C(=O)NC(=O)NC1=O)cn2Cc1cccc2ccccc12` [PNR-6-85], the remaining activity at 1 µM turned out to be 52.7%.
In the case of `COc1ccc2c(c1)c(C=C1C(=O)NC(=S)NC1=O)cn2Cc1cccc2ccccc12` [PNR-6-86], the remaining activity at 1 µM was determined as 9.55%.
Take `O=C1NC(=O)C(=Cc2cn(Cc3cccc4ccccc34)c3ccc(Cl)cc23)C(=O)N1` [PNR-6-88]: the remaining activity at 1 µM turned out to be 22.9%.
For `O=C1NC(=S)NC(=O)C1=Cc1cn(Cc2cccc3ccccc23)c2ccc(Cl)cc12` [PNR-6-89], the remaining activity at 1 µM stood at 3.5%.
In the case of `CN1C(=O)C(=Cc2cn(Cc3cccc4ccccc34)c3ccc(Cl)cc23)C(=O)N(C)C1=O` [PNR-6-90], the remaining activity at 1 µM amounted to 35.9%.
As to `O=C1NC(=O)C(=Cc2cn(Cc3cccc4ccccc34)c3ccc(Br)cc23)C(=O)N1` [PNR-6-91], the remaining activity at 1 µM stood at 12.7%.
`O=C1NC(=S)NC(=O)C1=Cc1cn(Cc2cccc3ccccc23)c2ccc(Br)cc12` [PNR-6-92]: the remaining activity at 1 µM worked out at 8.9%.
Consider `CN1C(=O)C(=Cc2cn(Cc3cccc4ccccc34)c3ccc(Br)cc23)C(=O)N(C)C1=O` [PNR-6-93], for which the remaining activity at 1 µM is 45.8%.
On the same count and under the same terms, then `O=C1NC(=S)NC(=O)C1=Cc1cn(Cc2ccc3ccccc3c2)c2ccccc12` [PNR-6-98], with 15.7%; and `CN1C(=O)C(=Cc2cn(Cc3ccc4ccccc4c3)c3ccccc23)C(=O)N(C)C1=O` [PNR-6-99], with 71.7%.
In the case of `O=C1NC(=O)C(=Cc2cn(Cc3ccc4ccccc4c3)c3ccc(Cl)cc23)C(=O)N1` [PNR-7-1], the remaining activity at 1 µM came to 14.8%.
For the molecule `O=C1NC(=S)NC(=O)C1=Cc1cn(Cc2ccc3ccccc3c2)c2ccc(Cl)cc12` [PNR-7-2], the remaining activity at 1 µM came to 17.8%.
Same read-out and setting: as for `CN1C(=O)C(=Cc2cn(Cc3ccc4ccccc4c3)c3ccc(Cl)cc23)C(=O)N(C)C1=O` [PNR-7-3], the figure is 59.1%; as for `COc1ccc2c(c1)c(C=C1C(=O)NC(=O)NC1=O)cn2Cc1ccc2ccccc2c1` [PNR-7-4], 24.7%.
On to `COc1ccc2c(c1)c(C=C1C(=O)NC(=S)NC1=O)cn2Cc1ccc2ccccc2c1` [PNR-7-5], for which the remaining activity at 1 µM came out at 13.8%.
As for `O=C1NC(=O)C(=Cc2cn(Cc3ccccc3Br)c3ccccc23)C(=O)N1` [PNR-7-7], the remaining activity at 1 µM stood at 14.1%.
For the molecule `O=C1NC(=S)NC(=O)C1=Cc1cn(Cc2ccccc2Br)c2ccccc12` [PNR-7-8], the remaining activity at 1 µM came out at 58%.
Take `CN1C(=O)C(=Cc2cn(Cc3cccc(C(F)(F)F)c3)c3ccccc23)C(=O)N(C)C1=O` [PNR-7-16]: the remaining activity at 1 µM was 17.2%.
Regarding `O=C1NC(=O)C(=Cc2cn(Cc3cccc(C(F)(F)F)c3)c3ccc(Cl)cc23)C(=O)N1` [PNR-7-17], the remaining activity at 1 µM came out at 57.1%.
With `O=C1NC(=S)NC(=O)C1=Cc1cn(Cc2cccc(C(F)(F)F)c2)c2ccc(Cl)cc12` [PNR-7-18], the remaining activity at 1 µM was 14.1%.
Same read-out and setting: then `COc1ccc2c(c1)c(C=C1C(=O)NC(=S)NC1=O)cn2Cc1cccc(C(F)(F)F)c1` [PNR-7-21], with 28.8%; and `Cc1c(C=C2C(=O)NC(=S)NC2=O)c2ccccc2n1Cc1cccc(C(F)(F)F)c1` [PNR-7-24], with 73.6%; and `COc1ccc2c(c1)c(C=C1C(=O)NC(=S)NC1=O)c(C)n2Cc1cccc2ccccc12` [PNR-7-27], with 19.1%.

The values above are taken from patent US20160075689A1, “POLYMERASE, ENDONUCLEASE, AND HELICASE INHIBITORS AND METHODS OF USING THEREOF” (THE BOARD OF TRUSTEES OF THE UNIVERSITY OF ARKANSAS, priority 2013, published 2016).
